Measured values from PubChem BioAssay (NCI).
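GI50 is the concentration that inhibits growth by half. At the TGI there is no net growth.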

Experiments:
Test in all cases: inhibition of tumour cell growth, NCI panel, 384-well format
[1] = system: 786-0 renal
[2] = system: A498 renal
[3] = system: A549 NSCLC
[4] = system: ACHN renal
[5] = system: BT-549 breast
[6] = system: CAKI-1 renal
[7] = system: CCRF-CEM leukemia
[8] = system: COLO 205 colon
[9] = system: DU-145 prostate
[10] = system: EKVX NSCLC
[11] = system: HCC-2998 colon
[12] = system: HCT-116 colon
[13] = system: HCT-15 colon
[14] = system: HL-60(TB) leukemia
[15] = system: HOP-62 NSCLC
[16] = system: HOP-92 NSCLC
[17] = system: HS 578T breast
[18] = system: HT29 colon
[19] = system: IGROV1 ovarian
[20] = system: K-562 leukemia
[21] = system: KM12 colon
[22] = system: LOX IMVI melanoma
[23] = system: M14 melanoma
[24] = system: MALME-3M melanoma
[25] = system: MCF7 breast
[26] = system: MDA-MB-231 breast
[27] = system: MDA-MB-435 melanoma
[28] = system: MDA-MB-468 breast
[29] = system: MOLT-4 leukemia
[30] = system: NCI-H226 lung
[31] = system: NCI-H23 lung
[32] = system: NCI-H322M lung
[33] = system: NCI-H460 NSCLC
[34] = system: NCI-H522 lung
[35] = system: NCI/ADR-RES ovarian
[36] = system: OVCAR-3 ovarian
[37] = system: OVCAR-4 ovarian
[38] = system: OVCAR-5 ovarian
[39] = system: OVCAR-8 ovarian
[40] = system: PC-3 prostate
[41] = system: RPMI-8226 leukemia
[42] = system: RXF 393 renal
[43] = system: SF-268 CNS
[44] = system: SF-295 CNS
[45] = system: SF-539 CNS
[46] = system: SK-MEL-2 melanoma
[47] = system: SK-MEL-28 melanoma
[48] = system: SK-MEL-5 melanoma
[49] = system: SK-OV-3 ovarian
[50] = system: SN12C renal
[51] = system: SNB-19 CNS
[52] = system: SNB-75 CNS
[53] = system: SW-620 colon
[54] = system: T-47D breast
[55] = system: TK-10 renal
[56] = system: U251 glioblastoma
[57] = system: UACC-257 melanoma
[58] = system: UACC-62 melanoma
[59] = system: UO-31 renal

SMILES: CNC(=O)c1cccc2cc(Oc3ccnc4cc(OCC5(N)CC5)c(OC)cc34)ccc12
- GI50 [1]: 1.77 µM
- TGI [1]: 3.49 µM
- GI50 [2]: 2.5 µM
- TGI [2]: 6.93 µM
- GI50 [3]: 4.22 µM
- TGI [3]: 14.6 µM
- GI50 [4]: 1.67 µM
- TGI [4]: 3.37 µM
- GI50 [5]: 1.78 µM
- TGI [5]: 8.85 µM
- GI50 [6]: 2.02 µM
- TGI [6]: 5.35 µM
- GI50 [7]: 1.67 µM
- TGI [7]: 3.23 µM
- GI50 [8]: 3.22 µM
- TGI [8]: 10.2 µM
- GI50 [9]: 5.43 µM
- TGI [9]: 17.6 µM
- GI50 [10]: 3.66 µM
- TGI [10]: 14.8 µM
- GI50 [11]: 5.53 µM
- TGI [11]: 16 µM
- GI50 [12]: 1.98 µM
- TGI [12]: 3.84 µM
- GI50 [13]: 3.87 µM
- TGI [13]: 13.1 µM
- GI50 [14]: 2.28 µM
- TGI [14]: 3.75 µM
- GI50 [15]: 2.91 µM
- TGI [15]: 15.5 µM
- GI50 [16]: 4.13 µM
- TGI [16]: 15.2 µM
- GI50 [17]: 1.23 µM
- TGI [17]: 4.08 µM
- GI50 [18]: 5.88 µM
- TGI [18]: 17.9 µM
- GI50 [19]: 5.36 µM
- TGI [19]: 17.5 µM
- GI50 [20]: 1.7 µM
- TGI [20]: 3.59 µM
- GI50 [21]: 3.83 µM
- TGI [21]: 15.1 µM
- GI50 [22]: 2.41 µM
- TGI [22]: 5.84 µM
- GI50 [23]: 3.97 µM
- TGI [23]: 14.3 µM
- GI50 [24]: 4.05 µM
- TGI [24]: 15.7 µM
- GI50 [25]: 2.37 µM
- TGI [25]: 10.8 µM
- GI50 [26]: 3.64 µM
- TGI [26]: 14.4 µM
- GI50 [27]: 2.63 µM
- TGI [27]: 7.43 µM
- GI50 [28]: 2.38 µM
- TGI [28]: 5.54 µM
- GI50 [29]: 1.2 µM
- TGI [29]: 2.45 µM
- GI50 [30]: 1.03 µM
- TGI [30]: 4.73 µM
- GI50 [31]: 4.73 µM
- TGI [31]: 16.4 µM
- GI50 [32]: 6.8 µM
- TGI [32]: 19.4 µM
- GI50 [33]: 2.74 µM
- TGI [33]: 7.12 µM
- GI50 [34]: 2.75 µM
- TGI [34]: 9.57 µM
- GI50 [35]: 13.3 µM
- TGI [35]: 27 µM
- GI50 [36]: 2.23 µM
- TGI [36]: 5.94 µM
- GI50 [37]: 1.48 µM
- TGI [37]: 4.04 µM
- GI50 [38]: 5.37 µM
- TGI [38]: 16.8 µM
- GI50 [39]: 4.05 µM
- TGI [39]: 16.1 µM
- GI50 [40]: 4.42 µM
- TGI [40]: 16.2 µM
- GI50 [41]: 1.98 µM
- TGI [41]: 5.13 µM
- GI50 [42]: 1.64 µM
- TGI [42]: 4.39 µM
- GI50 [43]: 4.31 µM
- TGI [43]: 17.9 µM
- GI50 [44]: 6.14 µM
- TGI [44]: 18.7 µM
- GI50 [45]: 0.621 µM
- TGI [45]: 4.94 µM
- GI50 [46]: 1.89 µM
- TGI [46]: 4.35 µM
- GI50 [47]: 12.1 µM
- TGI [47]: 24.6 µM
- GI50 [48]: 2.3 µM
- TGI [48]: 8.66 µM
- GI50 [49]: 3.01 µM
- TGI [49]: 11.6 µM
- GI50 [50]: 2.55 µM
- TGI [50]: 8.63 µM
- GI50 [51]: 3.89 µM
- TGI [51]: 15.7 µM
- GI50 [52]: 1.02 µM
- TGI [52]: 9.33 µM
- GI50 [53]: 4.12 µM
- TGI [53]: 15 µM
- GI50 [54]: 2.14 µM
- TGI [54]: 7.39 µM
- GI50 [55]: 2.55 µM
- TGI [55]: 6.52 µM
- GI50 [56]: 3.73 µM
- TGI [56]: 14.9 µM
- GI50 [57]: 4.04 µM
- TGI [57]: 14.2 µM
- GI50 [58]: 2.37 µM
- TGI [58]: 6.72 µM
- GI50 [59]: 3.17 µM
- TGI [59]: 10.9 µM
